Laboratory results published in patent publication US11977071B2, “Method for screening for platelet production promoters” (Kyoto University, priority 2016, dated 2024).

What was measured:
[1] = system: megakaryocyte cells (non-immortalized) derived from iPS cells (TkDA3-4); assay: Platelet production of iPS cell (TkDA3-4)-derived megakaryocyte cells in absence of feeder cells, FACS; assay type: cell-based; conditions: 10 days, 1 μM C59, 3.3 μM TCS-359, 0.75 μM SR1
Procedure: After culturing iPS cells (TkDA3-4), the colonies were detached with a cell scraper and cultured in differentiation medium on 10T1/2 feeder cells following the addition of […] of VEGF in accordance with Takayama, N., et al., Blood, 111, pp. 5298-5306, 2008. Fourteen days later, the cells were recovered using a cell scraper and cultured for 10 days in the absence of feeder cells following the addition of 25 U/mL of heparin, 10 μM Y-27632, 100 ng/ml of TPO and 50 ng/ml of SCF, and further adding 0.1% DMSO, 0.75 μM SR1, 1 μM C59 (Albiochem) or 3.3 μM TCS-359 (Santa Cruz Biotechnology, Inc.). Culturing was also carried out in the same manner using feeder cells. The resulting cells were suspended and the supernatant was harvested followed by analyzing by FACS after staining with anti-CD41a antibody and anti-CD42b antibody (FIG. 10).

[2] = system: TUBB1 expression (VENUS reporter) in immortalized megakaryocyte cell line MKCL #12-23 cre2; assay: Secondary screening: VENUS fluorescence intensity in reporter immortalized megakaryocyte cell line at four concentrations; assay type: cell-based, human; conditions: 10 μM, 3.3 μM, 1.1 μM and 0.4 μM compound, day 7
Procedure: Secondary screening consisted of seeding the immortalized megakaryocyte cell line obtained according to the method described above into a 96-well dish and culturing after adding 10 μM Y-27632, 50 ng/ml of TPO, 50 ng/ml of SCF and the primary candidate compounds at concentrations of 10 μM, 3.3 μM, 1.1 μM and 0.4 μM each. The cells were also cultured in differentiation medium containing 0.75 μM SR1, 10 μM Y-27632, 50 ng/ml of TPO and 50 ng/ml of SCF (positive control) or differentiation medium containing 0.1% DMSO, 10 μM Y-27632, 50 ng/ml of TPO and 50 ng/ml of SCF (negative control). On day 7 of culturing, the fluorescence intensity of VENUS in each compound group was measured with Array Scan VTI (Thermo Scientific), and the value of fluorescence intensity of each compound was corrected according to the fluorescence intensity of the positive control (assigned a value of 100%) and the fluorescence intensity of the negative control (assigned a value of 0%). […] The secondary candidate compounds consisted of 35 types of compounds, and included, for example, TCS-359 (CAS NO. 301305-73-7, Santa Cruz Biotechnology, Inc.) and C59 (CAS NO. 1243243-89-1).

[3] = system: immortalized megakaryocyte cell line MKCL #12-23 cre2; assay: Platelet production by immortalized megakaryocyte cell line, FACS of supernatant (anti-CD41a, anti-CD42b); assay type: cell-based, human; conditions: 10 μM, 3.3 μM, 1.1 μM and 0.4 μM compound, day 7, 6-well dish
Procedure: Continuing, the effect of promoting platelet production was confirmed for 28 compounds from among the secondary candidate compounds excluding duplicate compounds and compounds that were unable to be used commercially. The above-mentioned immortalized megakaryocyte cell line was cultured in a 6-well dish in differentiation medium containing each of the compounds at concentrations of 10 μM, 3.3 μM, 1.1 μM and 0.4 μM, 10 μM Y-27632, 50 ng/ml of TPO and 50 ng/ml of SCF, differentiation medium containing 0.75 μM SR1, 10 μM Y-27632, 50 ng/ml of TPO and 50 ng/ml of SCF (positive control), or differentiation medium containing 0.1% DMSO, 10 μM Y-27632, 50 ng/ml of TPO and 50 ng/ml of SCF (negative control), followed by suspending the cells and harvesting the supernatant on day 7 of culturing and analyzing by FACS after staining with anti-CD41a antibody and anti-CD42b antibody. The relative number of platelets was calculated by correcting the number of platelets in the case of using each candidate compound with the number of platelets of the positive control (assigned a value of 100%) and the number of platelets of the negative control (assigned a value of 0%) (FIG. 9).

[4] = system: immortalized megakaryocyte cell line MKCL #12-23 cre2; assay: Time course of VENUS expression and platelet number with or without SR1 on 10T1/2R feeder cells, FACS; assay type: cell-based, human; conditions: 0.75 μM SR1 with 10 μM Y-27632, TPO, SCF; day 0 to day 7
Procedure: Continuing, the immortalized megakaryocyte cell line was cultured on 10T1/2R feeder cells in differentiation medium containing 50 ng/ml of TPO and 50 ng/ml of SCF or differentiation medium containing 0.75 μM SR1, 10 μM Y-27632, 50 ng/ml of TPO and 50 ng/ml of SCF, followed by suspending the cells and harvesting the supernatant on day 0, day 1, day 3, day 4, day 6 and day 7 of culturing and analyzing the cells by FACS after staining with anti-CD41a antibody and anti-CD42b antibody.

SMILES | ability to produce platelets compared with SR1 [1] | concentration dependency of VENUS fluorescence intensity [2] | relative number of platelets (positive control 0.75 μM SR1 = 100%, negative control 0.1% DMSO = 0%) [3] | expression level of VENUS [4] | number of platelets produced [4]
COc1ccc(C(=O)Nc2sc3c(c2C(N)=O)CCCC3)cc1OC [TCS-359] | equal to or greater than that of SR1 | concentration dependency was observed |  |  | 
Cc1cc(-c2ccc(CC(=O)Nc3ccc(-c4cccnc4)cc3)cc2)ccn1 [C59] | equal to or greater than that of SR1 | concentration dependency was observed | potent platelet inducer |  | 
CC(C)n1cnc2c(NCCc3ccc(O)cc3)nc(-c3csc4ccccc34)nc21 [SR1, StemRegenin 1] |  |  |  | confirmed to rise | confirmed to increase
